Test results published in patent US6737383B1, “Herbicidal oxadiazolidines” (priority 1999, dated 2004).

Key:
surinam grass = assay: Test B pre/postemergence surinam grass; assay type: in vivo, Brachiaria decumbens
Method in brief: (§1)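 Herbicidal effect was estimated by eye on a ten-point control scale after plants spent twelve to sixteen days in a greenhouse following soil or foliar treatment. Foliar sprays targeted plants at one to four leaves; all doses were formulated in a non-phytotoxic solvent with surfactant.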

smallflower flatsedge = assay: Test B flood test smallflower flatsedge; assay type: in vivo, Cyperus difformis
Method in brief: (§2)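 Each value is a visual injury score relative to controls, with 10 meaning complete control and 0 no effect. Evaluation took place twelve to sixteen days after the 2-leaf-stage plants were treated and kept in the greenhouse.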

morningglory = assay: Test B pre/postemergence morningglory; assay type: in vivo, Ipomoea hederacea
Method in brief: as §1

rice = assay: Test B flood test rice; assay type: in vivo, Oryza sativa
Method in brief: as §2

cocklebur = assay: Test B pre/postemergence cocklebur; assay type: in vivo, Xanthium strumarium
Method in brief: as §1

crabgrass = assay: Test B pre/postemergence crabgrass; assay type: in vivo, Digitaria sanguinalis
Method in brief: as §1

corn = assay: Test B pre/postemergence corn; assay type: in vivo, Zea mays
Method in brief: as §1

bedstraw = assay: Test B pre/postemergence bedstraw; assay type: in vivo, Galium aparine
Method in brief: as §1

wheat = assay: Test B pre/postemergence wheat; assay type: in vivo, Triticum aestivum
Method in brief: as §1

wild oat = assay: Test B pre/postemergence wild oat; assay type: in vivo, Avena fatua
Method in brief: as §1

giant foxtail = assay: Test B pre/postemergence giant foxtail; assay type: in vivo, Setaria faberii
Method in brief: as §1

purple nutsedge = assay: Test B pre/postemergence purple nutsedge; assay type: in vivo, Cyperus rotundus
Method in brief: as §1

duck salad = assay: Test B flood test duck salad; assay type: in vivo, Heteranthera limosa
Method in brief: as §2

bamyardgrass = assay: Test B flood test barnyardgrass; assay type: in vivo, Echinochloa crus-galli
Method in brief: as §2

velvetleaf = assay: Test B pre/postemergence velvetleaf; assay type: in vivo, Abutilon theophrasti
Method in brief: as §1

blackgrass = assay: Test B pre/postemergence blackgrass; assay type: in vivo, Alopecurus myosuroides
Method in brief: as §1

[1] = Preemergence, Rate 62 g/ha, scale of 0 to 10 where 0 is no effect and 10 is complete control
[2] = Preemergence, Rate 250 g/ha, scale of 0 to 10 where 0 is no effect and 10 is complete control
[3] = Preemergence, Rate 500 g/ha, scale of 0 to 10 where 0 is no effect and 10 is complete control
[4] = Rate 62 g/ha, Postemergence, scale of 0 to 10 where 0 is no effect and 10 is complete control
[5] = Rate 125 g/ha, Postemergence, scale of 0 to 10 where 0 is no effect and 10 is complete control
[6] = Rate 125 g/ha, Preemergence, scale of 0 to 10 where 0 is no effect and 10 is complete control
[7] = Rate 250 g/ha, Postemergence, scale of 0 to 10 where 0 is no effect and 10 is complete control
[8] = Rate 500 g/ha, Postemergence, scale 0 to 10, 0 no effect, 10 complete control
[9] = Rate 62 g/ha, headed Pre-emergence (flood test species), scale 0 to 10 (0 no effect, 10 complete control)
[10] = Rate 125 g/ha, Pre-emergence, flood test species, scale 0 to 10 where 0 is no effect and 10 is complete control
[11] = Rate 250 g/ha, Pre-emergence, flood-test species, scale 0 to 10, 0 is no effect, 10 is complete control
[12] = Rate 500 g/ha, Pre-emergence, flood test species, scale 0 to 10 (0 no effect, 10 complete control)

Cc1ccccc1-n1c(=O)on(C(=O)N(c2cccc(F)c2)C(C)C)c1=O [Compound 269] was tested, and the “B. signalgrass plant response rating” value (surinam grass; [1]) was 0, the “B. signalgrass plant response rating” value (surinam grass; [2]) was 6 and the “Plant response rating, B. signalgrass” value (surinam grass; [3]) was 7. The “B. signalgrass plant response rating” value (surinam grass; [4]) was 0, the “B. signalgrass plant response rating” value (surinam grass; [5]) was 0 and the “B. signalgrass plant response rating” value (surinam grass; [6]) was 6. For the same compound, the “Plant response rating, B. signalgrass” value (surinam grass; [7]) was 0, the “B. signalgrass plant response rating” value (surinam grass; [8]) was 0 and the “S. Flatsedge plant response rating” value (smallflower flatsedge; [9]) was 0. For the same compound, the “S. Flatsedge plant response rating” value (smallflower flatsedge; [10]) was 0, the “S. Flatsedge plant response rating” value (smallflower flatsedge; [11]) was 0 and the “S. Flatsedge plant response rating” value (smallflower flatsedge; [12]) was 0. The “Morningglory plant response rating” value (morningglory; [1]) was 0, the “Morningglory plant response rating” value (morningglory; [2]) was 0 and the “Plant response rating, Morningglory” value (morningglory; [3]) was 0. The “Morningglory plant response rating” value (morningglory; [5]) was 3, the “Morningglory plant response rating” value (morningglory; [6]) was 0 and the “Plant response rating, Morningglory” value (morningglory; [7]) was 5. The “Morningglory plant response rating” value (morningglory; [8]) was 7, the “Rice plant response rating” value (rice; [9]) was 0 and the “Rice plant response rating” value (rice; [10]) was 0. The “Rice plant response rating” value (rice; [11]) was 0, the “Rice plant response rating” value (rice; [12]) was 0 and the “Cocklebur plant response rating” value (cocklebur; [1]) was 0. The “Cocklebur plant response rating” value (cocklebur; [2]) was 0, the “Plant response rating, Cocklebur” value (cocklebur; [3]) was 0 and the “Cocklebur plant response rating” value (cocklebur; [4]) was 0. The “Plant response rating, Cocklebur” value (cocklebur; [7]) was 1, the “Cocklebur plant response rating” value (cocklebur; [8]) was 2 and the “Crabgrass plant response rating” value (crabgrass; [1]) was 0. The “Crabgrass plant response rating” value (crabgrass; [2]) was 3, the “Plant response rating, Crabgrass” value (crabgrass; [3]) was 6 and the “Crabgrass plant response rating” value (crabgrass; [5]) was 0. The “Crabgrass plant response rating” value (crabgrass; [6]) was 2, the “Plant response rating, Crabgrass” value (crabgrass; [7]) was 0 and the “Crabgrass plant response rating” value (crabgrass; [8]) was 1. The “Corn plant response rating” value (corn; [1]) was 0, the “Corn plant response rating” value (corn; [2]) was 0 and the “Plant response rating, Corn” value (corn; [3]) was 0. The “Corn plant response rating” value (corn; [4]) was 0, the “Corn plant response rating” value (corn; [5]) was 0 and the “Corn plant response rating” value (corn; [6]) was 0. The “Plant response rating, Corn” value (corn; [7]) was 0, the “Corn plant response rating” value (corn; [8]) was 0 and the “Bedstraw plant response rating” value (bedstraw; [1]) was 0. The “Bedstraw plant response rating” value (bedstraw; [2]) was 0, the “Plant response rating, Bedstraw” value (bedstraw; [3]) was 0 and the “Bedstraw plant response rating” value (bedstraw; [5]) was 4. The “Bedstraw plant response rating” value (bedstraw; [6]) was 0, the “Plant response rating, Bedstraw” value (bedstraw; [7]) was 4 and the “Bedstraw plant response rating” value (bedstraw; [8]) was 7. The “Wheat plant response rating” value (wheat; [1]) was 0, the “Wheat plant response rating” value (wheat; [2]) was 0 and the “Plant response rating, Wheat” value (wheat; [3]) was 0. The “Wheat plant response rating” value (wheat; [5]) was 0, the “Wheat plant response rating” value (wheat; [6]) was 0 and the “Plant response rating, Wheat” value (wheat; [7]) was 2. The “Wheat plant response rating” value (wheat; [8]) was 4, the “Wild oats plant response rating” value (wild oat; [1]) was 0 and the “Wild oats plant response rating” value (wild oat; [2]) was 2. The “Plant response rating, Wild oats” value (wild oat; [3]) was 4, the “Wild oats plant response rating” value (wild oat; [5]) was 0 and the “Plant response rating, Wild oats” value (wild oat; [7]) was 0. For the same compound, the “Wild oats plant response rating” value (wild oat; [8]) was 3, the “Giant foxtail plant response rating” value (giant foxtail; [1]) was 3 and the “Giant foxtail plant response rating” value (giant foxtail; [2]) was 10. The “Giant foxtail plant response rating” value (giant foxtail; [5]) was 0, the “Giant foxtail plant response rating” value (giant foxtail; [6]) was 6 and the “Plant response rating, Giant foxtail” value (giant foxtail; [7]) was 0. The “Giant foxtail plant response rating” value (giant foxtail; [8]) was 2, the “Nutsedge plant response rating” value (purple nutsedge; [1]) was 0 and the “Nutsedge plant response rating” value (purple nutsedge; [5]) was 0. The “Nutsedge plant response rating” value (purple nutsedge; [6]) was 0, the “Plant response rating, Nutsedge” value (purple nutsedge; [7]) was 0 and the “Nutsedge plant response rating” value (purple nutsedge; [8]) was 0. For the same compound, the “Ducksalad plant response rating” value (duck salad; [9]) was 0, the “Ducksalad plant response rating” value (duck salad; [10]) was 0 and the “Ducksalad plant response rating” value (duck salad; [11]) was 0. The “Ducksalad plant response rating” value (duck salad; [12]) was 0, the “Barnyardgrass plant response rating” value (bamyardgrass; [9]) was 0 and the “Barnyardgrass plant response rating” value (bamyardgrass; [10]) was 0. The “Barnyardgrass plant response rating” value (bamyardgrass; [11]) was 0, the “Barnyardgrass plant response rating” value (bamyardgrass; [12]) was 0 and the “Velvetleaf plant response rating” value (velvetleaf; [1]) was 0. For the same compound, the “Velvetleaf plant response rating” value (velvetleaf; [2]) was 0, the “Plant response rating, Velvetleaf” value (velvetleaf; [3]) was 0 and the “Velvetleaf plant response rating” value (velvetleaf; [5]) was 0. The “Velvetleaf plant response rating” value (velvetleaf; [6]) was 0, the “Plant response rating, Velvetleaf” value (velvetleaf; [7]) was 3 and the “Velvetleaf plant response rating” value (velvetleaf; [8]) was 3. The “Blackgrass plant response rating” value (blackgrass; [1]) was 0, the “Blackgrass plant response rating” value (blackgrass; [2]) was 3 and the “Plant response rating, Blackgrass” value (blackgrass; [3]) was 7. For the same compound, the “Blackgrass plant response rating” value (blackgrass; [4]) was 0, the “Blackgrass plant response rating” value (blackgrass; [5]) was 0 and the “Blackgrass plant response rating” value (blackgrass; [6]) was 2. The “Plant response rating, Blackgrass” value (blackgrass; [7]) was 2 and the “Blackgrass plant response rating” value (blackgrass; [8]) was 5.
